For data set [1], the system named is Calf thymus DNA. Description: Induction of calf thymus DNA cleavage at 5 uM by ethidium bromide based agarose gel electrophoresis method. In kind it is nucleic-acid assay. As to conditions: Bos taurus.
The test system of data set [2] is Mycobacterium tuberculosis. Description: Antitubercular activity against Mycobacterium tuberculosis H37Rv ATCC 27294 at 6.25 ug/ml after 5 days by MABA method. The data set is classed as functional. As to conditions: H37Rv ATCC 27294, 120 h, read-out: GI. In general terms: Alamar Blue is a resazurin reagent that responds to reducing activity.
Data set [3] is described as follows: Dissociation constant, pKa of the compound by potentiometric titration method. In kind it is physicochemical.
Data set [4] can be described thus: Cytotoxicity against African green monkey Vero cells assessed as cell survival at 31.2 ug/ml after 72 hrs by MTS-PMS assay. The data set is classed as cell-based. The conditions noted are these: chlorocebus sabaeus, read-out: Survival. (Tetrazolium assays rely on reduction of a dye to a coloured formazan, in cell work by metabolically active cells.)
Data set [5] has as its system Mycobacterium tuberculosis. Description: Antitubercular activity against Mycobacterium tuberculosis H37Rv ATCC 27294 after 5 days by MABA method. In kind it is functional. As to conditions: H37Rv ATCC 27294, 120 h.
In data set [6] the target is T1, Albumin (Bos taurus, UniProt P02769). Description: Binding affinity to bovine serum albumin in pH 7.4 phosphate buffer at 27 degC assessed as Gibbs free energy change by UV-vis spectroscopic analysis. In kind it is ADME. The conditions noted are these: cattle, isolated protein.
Data set [7] has as its target T1, Albumin. The data set is described as follows: Binding affinity to bovine serum albumin assessed as association constant in phosphate buffer of pH 7.4 by fluorescence spectroscopic analysis. The conditions noted are these: cattle, isolated protein. In kind it is ADME.
Data set [8] concerns the target T1, Albumin. The data set is described as follows: Binding affinity to bovine serum albumin in pH 7.4 phosphate buffer at 27 degC by UV-vis spectroscopic analysis. In kind it is ADME. The conditions noted are these: cattle, isolated protein.
For data set [9], the target named is T1, Albumin. Description: Binding affinity to bovine serum albumin assessed as quenching constant in phosphate buffer of pH 7.4 by fluorescence spectroscopic analysis. The conditions noted are these: cattle, isolated protein. The data set is classed as ADME.
Data set [10] is described as follows: Cytotoxicity against African green monkey Vero cells assessed as cell survival at 0.4 ug/ml after 72 hrs by MTS-PMS assay. In kind it is cell-based. As to conditions: chlorocebus sabaeus, read-out: Survival.
Data set [11] addresses T1, Albumin. The data set is described as follows: Binding affinity to bovine serum albumin in pH 7.4 phosphate buffer at 27 degC assessed as association constant by UV-vis spectroscopic analysis. In kind it is ADME. As to conditions: cattle, isolated protein.
The target of data set [12] is T1, Albumin. The data set is described as follows: Binding affinity to bovine serum albumin assessed as Stern-Volmer quenching constant in phosphate buffer of pH 7.4 by fluorescence spectroscopic analysis. In kind it is ADME. The conditions noted are these: cattle, isolated protein.
Data set [13] can be described thus: Stability of the compound at pH 4.4 to 8.2 by electronic absorption spectroscopic analysis. The conditions noted are these: buffer. In kind it is physicochemical.
Data set [14] is described as follows: Stability of the compound at pH 4.4 to 8.6 by electronic absorption spectroscopic analysis. In kind it is physicochemical. As to conditions: buffer.
Data set [15] is described as follows: Cytotoxicity against African green monkey Vero cells assessed as cell survival at 3.9 ug/ml after 72 hrs by MTS-PMS assay. In kind it is cell-based. As to conditions: chlorocebus sabaeus, read-out: Survival.
Data set [16] is described as follows: Cytotoxicity against African green monkey Vero cells assessed as cell survival at 0.2 ug/ml after 72 hrs by MTS-PMS assay. The data set is classed as cell-based. As to conditions: chlorocebus sabaeus, read-out: Survival.
Data set [17] in a line: Cytotoxicity against African green monkey Vero cells assessed as cell survival at 0.9 ug/ml after 72 hrs by MTS-PMS assay. The data set is classed as cell-based. As to conditions: chlorocebus sabaeus, read-out: Survival.
Data set [18] can be described thus: Cytotoxicity against African green monkey Vero cells assessed as cell survival at 1.9 ug/ml after 72 hrs by MTS-PMS assay. In kind it is cell-based. The conditions noted are these: chlorocebus sabaeus, read-out: Survival.

≈ marks a conversion by molar mass, not a printed value. Calls of active or inactive are those of the source. The calls are words filed in the database; no cut-off is given here.

The source of these data is ChEMBL document CHEMBL4229366, “Synthesis and evaluation of novel coumarin-oxime ethers as potential anti-tubercular agents: Their DNA cleavage ability and BSA interaction study” (Eur J Med Chem, 2018).

By pKa is commonly meant the pH at which an ionisable group is half protonated. As usually defined, the MIC is the least concentration at which growth counts as inhibited.

T1 sequence (P02769 whole entry): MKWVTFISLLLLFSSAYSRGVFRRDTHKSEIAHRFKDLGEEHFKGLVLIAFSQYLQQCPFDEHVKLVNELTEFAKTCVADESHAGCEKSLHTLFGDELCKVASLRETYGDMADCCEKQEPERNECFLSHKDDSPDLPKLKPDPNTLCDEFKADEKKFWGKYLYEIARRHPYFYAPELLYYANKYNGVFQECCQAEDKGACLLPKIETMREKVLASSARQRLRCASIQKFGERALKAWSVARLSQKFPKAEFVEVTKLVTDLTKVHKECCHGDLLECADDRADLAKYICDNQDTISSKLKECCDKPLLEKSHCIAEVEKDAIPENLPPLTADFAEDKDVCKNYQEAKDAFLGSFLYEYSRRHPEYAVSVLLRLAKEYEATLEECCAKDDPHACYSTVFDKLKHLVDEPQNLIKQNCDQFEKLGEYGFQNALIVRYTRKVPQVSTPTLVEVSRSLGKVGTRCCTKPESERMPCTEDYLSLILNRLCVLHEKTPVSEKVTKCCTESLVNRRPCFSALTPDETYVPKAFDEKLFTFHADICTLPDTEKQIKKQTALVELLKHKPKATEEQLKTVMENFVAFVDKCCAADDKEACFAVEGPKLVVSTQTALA

As for `CC(=O)/C(C)=N/OCc1cc(=O)oc2ccc(Br)cc12`, the outcome in data set [1] was Active. For the same molecule, the inhibition of growth at 6.25 µg/mL in data set [2] came to 81%. In addition, the pKa in data set [3] was 5.4.

With `CC(=O)/C(C)=N/OCc1cc(=O)oc2ccc3ccccc3c12`, the result in [1] was Active. Moreover, in data set [2], the inhibition of growth at 6.25 µg/mL turned out to be 90%. Moreover, the pKa in data set [3] was found to be 5.6. Besides, the viability at 72 h, 31.2 ug/ml in data set [4] was 67%. This molecule displayed an MIC in data set [5] of 3.12 µg/mL (≈ 10.1 µM).

For `CC(=O)/C(C)=N/OCc1cc(=O)oc2cc(C)cc(C)c12`, the deltaG in data set [6] is -5.619 kcal/mol. Further, the Ka in data set [7] is listed as 1.37 ×10⁴ L/mol; in [11], 1.24 ×10⁴ L/mol. Also, the Activity result in [8] is given as “Dose-dependent effect”. Moreover, in data set [1], the result was Active. Moreover, the inhibition of growth at 6.25 µg/mL in data set [2] turned out to be 97%. The same molecule had a pKa in data set [3] of 5.5. Also, the Kq in data set [9] was found to be 1.07 ×10¹³ /mol/s. For the same molecule, the viability at 72 h, 0.4 ug/ml in data set [10] amounted to 89%. Moreover, in [5], the lowest concentration to inhibit growth (MIC) was 0.04 µg/mL (≈ 0.139 µM). In data set [12], the KSV turned out to be 6.19 ×10⁴ /mol. In addition, in data set [13], the Stability result is “Stable”.

As for `CC(=O)/C(C)=N/OCc1cc(=O)oc2ccc(Cl)cc12`, in data set [1], the outcome was Active. For the same molecule, in [2], the inhibition of growth at 6.25 µg/mL is 26%. The same molecule registered a pKa in data set [3] of 5.4.

Turning to `O=c1cc(CSC2=NCCS2)c2cc(Cl)ccc2o1`, in [5], it took 0.09 µg/mL (≈ 0.289 µM) to inhibit growth (MIC).

Turning to `CC(=O)/C(C)=N/OCc1cc(=O)oc2ccc(C)cc12`, in [1], the result was Active. Besides, the inhibition of growth at 6.25 µg/mL in data set [2] worked out at 92%. The molecule also registered a pKa in [3] of 5.7. Further, the Stability result in [14] is “Stable”. The viability at 72 h, 3.9 ug/ml in data set [15] was determined as 72%. This molecule also displayed an MIC in data set [5] of 0.39 µg/mL (≈ 1.43 µM).

With `CC(=O)/C(C)=N/OCc1cc(=O)oc2c1ccc1ccccc12`, the result in [1] was inactive. The inhibition of growth at 6.25 µg/mL in data set [2] worked out at 87%. In [3], this molecule had a pKa of 5.6.

In the case of `CC(=O)/C(C)=N/OCc1cc(=O)oc2cc(C)ccc12`, the outcome in data set [1] was inactive. The inhibition of growth at 6.25 µg/mL in data set [2] is 91%. For the same molecule, the pKa in data set [3] turned out to be 5.5. Moreover, in data set [15], the viability at 72 h, 3.9 ug/ml was determined as 59%. The same molecule yielded an MIC in data set [5] of 0.39 µg/mL (≈ 1.43 µM).

Take `NNC(=O)c1ccncc1` [ISONIAZID]: in data set [16], the viability at 72 h, 0.2 ug/ml was found to be 98%. Besides, the inhibition of growth at 6.25 µg/mL in [2] was found to be 100%. For the same molecule, the pKa in [3] was in the range of 1.8 to 9.5. In addition, 0.02 µg/mL (≈ 0.146 µM) was the least that counted as inhibitory in data set [5] (MIC).

`CC(=O)/C(C)=N/OCc1cc(=O)oc2cc(Cl)ccc12`: in data set [1], the result was inactive. Also, the inhibition of growth at 6.25 µg/mL in [2] is 21%. For the same molecule, the pKa in data set [3] turned out to be 5.4.

Consider `CC(=O)/C(C)=N/OCc1cc(=O)oc2c(C)c(C)ccc12`, for which, in data set [1], the result was Active. Besides, the inhibition of growth at 6.25 µg/mL in data set [2] was found to be 95%. In data set [3], this molecule registered a pKa of 5.5. For the same molecule, the Stability result in data set [14] is on record as “Stable”. This molecule displayed an MIC in data set [5] of 0.09 µg/mL (≈ 0.313 µM). Moreover, in data set [17], the viability at 72 h, 0.9 ug/ml was determined as 84%.

For `COc1ccc2oc(=O)cc(CO/N=C(\C)C(C)=O)c2c1`, the outcome in data set [1] was Active. The inhibition of growth at 6.25 µg/mL in [2] was determined as 94%. The pKa in [3] turned out to be 5.8. The Stability entry in data set [14] is on record as “Stable”. The lowest concentration to inhibit growth in data set [5] (MIC) was 0.19 µg/mL (≈ 0.657 µM). The viability at 72 h, 1.9 ug/ml in data set [18] amounted to 78%.
